Laboratory results published in ChEMBL document CHEMBL1201862, “PubChem BioAssay data set” (2004).
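Following 48 hours of exposure in 96-well plates, responses at five concentrations were used to interpolate endpoints linearly. Here, GI50 denotes the concentration required for 50% inhibition of growth.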 The source made the active and inactive calls. No stated cut-off is given here; in the data, active = GI50 up to about 1.1 µM and inactive = higher.

What was measured:
Assay in all cases: NCI anticancer screen, dose series, 48 h
NCI/ADR-RES = test system: NCI/ADR-RES
T47D = test system: T47D
SK-MEL-5 = test system: SK-MEL-5
SF-268 = test system: SF-268
PC-3 = test system: PC-3
NCI-H23 = test system: NCI-H23
A549 = test system: A549
SNB-75 = test system: SNB-75
M14 = test system: M14
SK-MEL-28 = test system: SK-MEL-28
ACHN = test system: ACHN
UACC-62 = test system: UACC-62
MDA-MB-231 = test system: MDA-MB-231
CAKI-1 = test system: CAKI-1
DU-145 = test system: DU-145
KM12 = test system: KM12
SNB-19 = test system: SNB-19
SN12C = test system: SN12C
Hs-578T = test system: Hs-578T
BT-549 = test system: BT-549
786-0 = test system: 786-0
OVCAR-4 = test system: OVCAR-4
OVCAR-8 = test system: OVCAR-8
HCT-15 = test system: HCT-15
MOLT-4 = test system: MOLT-4
HOP-92 = test system: HOP-92
EKVX = test system: EKVX
IGROV-1 = test system: IGROV-1
TK-10 = test system: TK-10
HT-29 = test system: HT-29
MCF7 = test system: MCF7
SW-620 = test system: SW-620
SF-295 = test system: SF-295
A498 = test system: A498
NCI-H226 = test system: NCI-H226
K562 = test system: K562
SK-OV-3 = test system: SK-OV-3
RPMI-8226 = test system: RPMI-8226
LOX IMVI = test system: LOX IMVI
SF-539 = test system: SF-539
SR = test system: SR
NCI-H522 = test system: NCI-H522
OVCAR-5 = test system: OVCAR-5
UO-31 = test system: UO-31
RXF 393 = test system: RXF 393
HOP-62 = test system: HOP-62
Malme-3M = test system: Malme-3M
HCT-116 = test system: HCT-116
OVCAR-3 = test system: OVCAR-3
COLO 205 = test system: COLO 205
NCI-H460 = test system: NCI-H460
SK-MEL-2 = test system: SK-MEL-2
UACC-257 = test system: UACC-257
MDA-N = test system: MDA-N
U-251 = test system: U-251

Measured: GI50

N/C(=N\c1ccc(Cl)cc1)NS(=O)(=O)c1ccc(-c2ccccn2)s1
inactive: NCI/ADR-RES 18.1 µM | T47D 12.8 µM | SK-MEL-5 15.8 µM | SF-268 17.3 µM | PC-3 14.2 µM | NCI-H23 15.9 µM | A549 19.1 µM | SNB-75 21.8 µM | M14 17.8 µM | SK-MEL-28 19.4 µM | ACHN 16.4 µM | UACC-62 13.4 µM | MDA-MB-231 14.2 µM | CAKI-1 2.07 µM | DU-145 17 µM | KM12 29.7 µM | SNB-19 16.3 µM | SN12C 15.5 µM | Hs-578T 24.8 µM | BT-549 17.3 µM | 786-0 15.2 µM | OVCAR-4 11.5 µM | OVCAR-8 19 µM | MOLT-4 2.41 µM | HOP-92 13 µM | EKVX 12.1 µM | IGROV-1 16.1 µM | TK-10 17.3 µM | HT-29 18.3 µM | MCF7 17.1 µM | SW-620 19.4 µM | SF-295 17.5 µM | A498 12.5 µM | NCI-H226 17.3 µM | K562 15.4 µM | SK-OV-3 22.1 µM | RPMI-8226 16.9 µM | LOX IMVI 17.5 µM | SF-539 14.9 µM | SR 14.5 µM | NCI-H522 9.27 µM | OVCAR-5 21.4 µM | UO-31 17.7 µM | RXF 393 16.8 µM | HOP-62 18.1 µM | Malme-3M 12.4 µM | HCT-116 16.9 µM | OVCAR-3 22.8 µM | COLO 205 17.4 µM | NCI-H460 17.7 µM | SK-MEL-2 14.1 µM | UACC-257 7.91 µM | MDA-N 6.89 µM | U-251 15 µM
17.5 µM: HCT-15
